Experiments:
S. pneumoniae D39V = test: fitness (endpoint OD595 vs no drug) (fraction); higher = more growth
Summary of the method: (§1)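 With the first reading as background, OD595 was measured every 30 min for 14 h in 384-well plates kept at 37 °C and inoculated at OD595 0.01. TSB, LB Lennox or CY was the medium. Fitness is the optical density at the transition into stationary phase divided by the robust mean of no-drug control wells, with a cap of 1.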

S. aureus Newman = test: as above
Summary of the method: as §1
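Note: OD595 on entry to stationary phase over no-drug wells; at most 1.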

CC[C@H]1OC(=O)[C@H](C)[C@@H](O[C@H]2C[C@@](C)(OC)[C@@H](O)[C@H](C)O2)[C@H](C)[C@@H](O[C@@H]2O[C@H](C)C[C@H](N(C)C)[C@H]2O)[C@](C)(OC)C[C@@H](C)C(=O)[C@H](C)[C@@H](O)[C@]1(C)O [Clarithromycin] + CO/N=C(\C(=O)N[C@@H]1C(=O)N2C(C(=O)[O-])=C(C[N+]3(C)CCCC3)CS[C@H]12)c1csc(N)n1 [Cefepime]
fitness, S. pneumoniae D39V, one replicate
Conditions	first compound 0.007812 µg/mL	first compound 0.01562 µg/mL	first compound 0.03125 µg/mL
partner 0.0078 µg/mL	0.887	0.866	0.673
partner 0.0155 µg/mL	0.884	0.834	0.635
partner 0.031 µg/mL	0.456	0.491	0.456

fitness, S. pneumoniae D39V
Conditions	first compound 0.0625 µg/mL	first compound 0.07 µg/mL	first compound 0.125 µg/mL	first compound 0.14 µg/mL	first compound 0.25 µg/mL	first compound 0.28 µg/mL
partner 0.007 µg/mL	0.67	–	0.43	–	0.165	–
partner 0.0078 µg/mL	–	0.187	–	0.0821	–	0.103
partner 0.014 µg/mL	0.675	–	0.458	–	0.181	–
partner 0.0155 µg/mL	–	0.168	–	0.105	–	0.108
partner 0.028 µg/mL	0.611	–	0.358	–	0.136	–
partner 0.031 µg/mL	–	0.0769	–	0.102	–	0.091

CC[C@H]1OC(=O)[C@H](C)[C@@H](O[C@H]2C[C@@](C)(OC)[C@@H](O)[C@H](C)O2)[C@H](C)[C@@H](O[C@@H]2O[C@H](C)C[C@H](N(C)C)[C@H]2O)[C@](C)(OC)C[C@@H](C)C(=O)[C@H](C)[C@@H](O)[C@]1(C)O [Clarithromycin] + CO[C@@]12[C@H](COC(N)=O)C3=C(C(=O)C(C)=C(N)C3=O)N1C[C@@H]1N[C@@H]12 [Mitomycin C]
fitness, S. pneumoniae D39V, one replicate
Conditions	first compound 0.007812 µg/mL	first compound 0.01562 µg/mL	first compound 0.03125 µg/mL
partner 0.002 µg/mL	0.798	0.763	0.596
partner 0.004 µg/mL	0.727	0.692	0.539
partner 0.008 µg/mL	0.546	0.558	0.379

fitness, S. pneumoniae D39V
Conditions	first compound 0.0625 µg/mL	first compound 0.07 µg/mL	first compound 0.125 µg/mL	first compound 0.14 µg/mL	first compound 0.25 µg/mL	first compound 0.28 µg/mL
partner 0.001075 µg/mL	0.654	–	0.345	–	0.084	–
partner 0.002 µg/mL	–	0.139	–	0.0901	–	0.0614
partner 0.00215 µg/mL	0.642	–	0.285	–	0.108	–
partner 0.004 µg/mL	–	0.142	–	0.0707	–	0.0988
partner 0.0043 µg/mL	0.526	–	0.245	–	0.0525	–
partner 0.008 µg/mL	–	0.0708	–	0.039	–	0.0676

CCC[C@@H]1C[C@@H](C(=O)N[C@@H]([C@H]2O[C@H](SC)[C@H](O)[C@@H](O)[C@H]2O)[C@H](C)Cl)N(C)C1 [Clindamycin] + CC1(C)S[C@@H]2[C@H](NC(=O)Cc3ccccc3)C(=O)N2[C@H]1C(=O)O [Penicillin G]
fitness, S. aureus Newman
Conditions	first compound 0.0312 µg/mL	first compound 0.0625 µg/mL	first compound 0.125 µg/mL
partner 0.0195 µg/mL	0.639	0.416	0.0886
partner 0.039 µg/mL	0.708	–	0.0624
partner 0.078 µg/mL	–	–	0.0543

CCC[C@@H]1C[C@@H](C(=O)N[C@@H]([C@H]2O[C@H](SC)[C@H](O)[C@@H](O)[C@H]2O)[C@H](C)Cl)N(C)C1 [Clindamycin] + CC[C@H]1OC(=O)[C@H](C)[C@@H](O[C@H]2C[C@@](C)(OC)[C@@H](O)[C@H](C)O2)[C@H](C)[C@@H](O[C@@H]2O[C@H](C)C[C@H](N(C)C)[C@H]2O)[C@](C)(OC)C[C@@H](C)C(=O)[C@H](C)[C@@H](O)[C@]1(C)O [Clarithromycin]
fitness, S. pneumoniae D39V
Conditions	first compound 0.0125 µg/mL	first compound 0.015 µg/mL	first compound 0.025 µg/mL	first compound 0.03 µg/mL	first compound 0.05 µg/mL	first compound 0.06 µg/mL
partner 0.0625 µg/mL	0.563	–	0.422	–	0.164	–
partner 0.07 µg/mL	–	0.136	–	0.11	–	0.0799
partner 0.125 µg/mL	0.409	–	0.338	–	0.109	–
partner 0.14 µg/mL	–	0.087	–	0.081	–	0.115
partner 0.25 µg/mL	0.181	–	0.121	–	0.0631	–
partner 0.28 µg/mL	–	0.0757	–	0.0789	–	0.0946

fitness, S. pneumoniae D39V, one replicate
Conditions	first compound 0.015 µg/mL	first compound 0.03 µg/mL	first compound 0.06 µg/mL
partner 0.007812 µg/mL	0.728	0.578	0.283
partner 0.01562 µg/mL	0.746	0.637	0.371
partner 0.03125 µg/mL	0.635	0.557	0.175

Reference: the supplement of paper PMC10627819
